Measured values from patent US11998543B2, “Pharmaceutical composition comprising aldehyde inhibitor and anticancer agent for treatment of brain cancer” (Industry-Academic Cooperation Foundation, Yonsei University, priority 2018, dated 2024).

Experiments:
[1] = test system: U87 cells; assay: WST cytotoxicity / cell viability assay (EZ-Cytox), 72 h drug treatment; format: cell-based; conditions: for Measured value (cell viability) / Value expressed relative to administration alone: U87; for Measured value (cell viability): G and P 10 μM each; for Measured value (cell viability) / Cancer cell killing (cytotoxicity), comparison in words: 72 h; for Value expressed relative to administration alone: viability with anticancer drug alone set to 1; for Cancer cell killing (cytotoxicity), comparison in words: spherical U87 cells, compared with single agents or other combinations, PTX and 5-FU at high concentration (H) vs TMZ alone
Protocol: (§1) Cultured tumorsphere-forming glioblastoma cells (GBM TS) were seeded into 96-well plates at a density of 10^4 cells/well and treated for 72 hours with a drug-containing medium prepared in a Preparation Example (a control group was treated with general culture medium), and then cytotoxicity to the cancer cells was measured by WST assay using EZ-Cytox reagent (DoGenBio, Seoul, Korea) according to the manufacturer's protocol.
(§2) For the present disclosure, two types of tumorsphere (TS)-forming glioblastoma (GBM) cells were used. TS13-64 cells are primary tumor cells derived from a GBM patient, and established from a new GBM tissue sample under the approval of the Institutional Review Board of the Yonsei University College of Medicine (approval Nos: 4-2012-0212 and 4-2014-0649). As U87 cells, spherical cells prepared by culturing the U87MG cell line under TS culture conditions were used. For TS culture, cells were treated with DMEM/F-12 medium containing 2 wt % 1×B27, 0.02 wt % bFGF (20 ng/ml), 0.02 wt % EGF (20 ng/ml) and 50 U/ml penicillin/[…] streptomycin (100×, Gibco, Invitrogen Korea, Seoul, South Korea), and all in vitro experiments were performed under TS culture conditions.
(§3) For use in in vitro experiments, gossypol (G) and phenformin (P, Sigma-Aldrich) were dissolved in DMSO and H2O, respectively, at a concentration of 10 μM. The anticancer drug temozolomide (TMZ, Sigma-Aldrich) was dissolved in DMSO and used at a concentration of 250 μM. As controls for the anticancer drug TMZ for co-administration with gossypol and phenformin, other anticancer drugs, paclitaxel (PTX) and fluorouracil (5-FU), were used. […] That is, in the same manner as TMZ, paclitaxel was prepared and used at a low concentration of 2 nM and a high concentration of 5 nM, and fluorouracil was prepared and used at a low concentration of 50 μM and a high concentration of 100 μM (low concentration is indicated by L, and high concentration is indicated by H).
as §1, with “in the” for “in a”
(§4) Evaluation of cytotoxicity to cancer cells and the sphere-forming ability of cells was performed in the same manner as in Example 1.
(§5) In order to more easily compare these effects, the cell viability value obtained upon administration of each anticancer drug alone was set to 1, and the cell viability value obtained upon co-administration was expressed relative to the cell viability value obtained upon administration of each anticancer drug alone.

[2] = test system: TS13-64 cells; assay: as above; format: cell-based, human; conditions: for Measured value (cell viability) / Value expressed relative to administration alone: TS13-64; for Measured value (cell viability): G and P 10 μM each; for Measured value (cell viability) / Cancer cell killing (cytotoxicity), comparison in words: 72 h; for Value expressed relative to administration alone: viability with anticancer drug alone set to 1; for Cancer cell killing (cytotoxicity), comparison in words: TS13-64 cells, compared with single agents or other combinations, PTX and 5-FU at high concentration (H) vs TMZ alone
Protocol: as §1, §2, §3
as §1, with “in the” for “in a”
as §4, §5

[3] = high concentration (H): PTX 5 nM, 5-FU 100 μM
[4] = low concentration (L): PTX 2 nM, 5-FU 50 μM

Compound	Measured value (cell viability) [1, 3]	Value expressed relative to administration alone [1, 3]	Measured value (cell viability) [1, 4]	Value expressed relative to administration alone [1, 4]	Cancer cell killing (cytotoxicity), comparison in words [1]	Measured value (cell viability) [2, 3]	Value expressed relative to administration alone [2, 3]	Measured value (cell viability) [2, 4]	Value expressed relative to administration alone [2, 4]	Cancer cell killing (cytotoxicity), comparison in words [2]	Measured value (cell viability) ([1]; TMZ 250 μM)	Value expressed relative to administration alone ([1]; TMZ 250 μM)	Measured value (cell viability) ([2]; TMZ 250 μM)	Value expressed relative to administration alone ([2]; TMZ 250 μM)
CC(=O)O[C@H]1C(=O)[C@@]2(C)[C@H]([C@H](OC(=O)c3ccccc3)[C@]3(O)C[C@H](OC(=O)[C@H](O)[C@@H](NC(=O)c4ccccc4)c4ccccc4)C(C)=C1C3(C)C)[C@]1(OC(C)=O)CO[C@@H]1C[C@@H]2O [PTX, paclitaxel]	0.720	1.000	0.947	1.000	higher	0.675	1.000	0.764	1.000	higher				
O=c1[nH]cc(F)c(=O)[nH]1 [5FU, fluorouracil]	0.804	1.000	0.980	1.000	higher	0.756	1.000	0.826	1.000	higher				
Cn1nnc2c(C(N)=O)ncn2c1=O [TMZ, temozolomide]											0.879	1.000	0.781	1.000
